Reference: ChEMBL document CHEMBL5356934, “Antibacterial activities of anthraquinones: structure-activity relationships and action mechanisms” (RSC Med Chem, 2023)
Converted amounts (≈) assume the structure as drawn.

Assays:
Staphylococcus aureus [1] = assay: Antibacterial activity against Staphylococcus aureus NCTC 11994 assessed as reduction in bacterial growth; format: functional
Salmonella typhimurium [2] = assay: Antibacterial activity against Salmonella typhimurium ATCC 1255 assessed as reduction in bacterial growth; format: functional, Salmonella enterica subsp. enterica serovar Typhimurium; details: Salmonella enterica
Acetylcholinesterase = Acetylcholinesterase (Homo sapiens, UniProt P22303); assay: Inhibition of Acetylcholinesterase (unknown origin)
Chain of Acetylcholinesterase (P22303 whole entry): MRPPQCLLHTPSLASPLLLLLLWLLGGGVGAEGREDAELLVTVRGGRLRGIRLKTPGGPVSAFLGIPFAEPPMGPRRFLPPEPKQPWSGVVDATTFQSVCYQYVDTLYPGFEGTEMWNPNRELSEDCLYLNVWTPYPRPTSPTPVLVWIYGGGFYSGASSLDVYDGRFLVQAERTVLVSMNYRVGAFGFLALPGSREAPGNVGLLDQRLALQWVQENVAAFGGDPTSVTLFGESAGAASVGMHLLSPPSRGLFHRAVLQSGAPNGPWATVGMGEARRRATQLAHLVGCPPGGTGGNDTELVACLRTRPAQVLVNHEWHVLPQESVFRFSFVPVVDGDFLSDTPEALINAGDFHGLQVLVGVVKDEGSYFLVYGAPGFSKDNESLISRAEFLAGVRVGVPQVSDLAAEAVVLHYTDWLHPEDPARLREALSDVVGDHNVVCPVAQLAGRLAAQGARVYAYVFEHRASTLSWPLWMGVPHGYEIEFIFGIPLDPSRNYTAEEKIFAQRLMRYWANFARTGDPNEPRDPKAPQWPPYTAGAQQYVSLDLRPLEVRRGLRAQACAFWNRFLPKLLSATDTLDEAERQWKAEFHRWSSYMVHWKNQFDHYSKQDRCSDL

Staphylococcus aureus [3] = assay: Antibacterial activity against Staphylococcus aureus assessed as diameter of inhibition zone; format: functional
Pseudomonas aeruginosa [4] = assay: Antibacterial activity against wild type Pseudomonas aeruginosa ATCC 27853 after 24 hrs by microbroth dilution method; format: functional
Staphylococcus aureus [5] = assay: Antibacterial activity against methicillin-susceptible Staphylococcus aureus assessed as reduction in bacterial growth; format: functional
Enterococcus faecium [6] = assay: Antibacterial activity against vancomycin-resistant Enterococcus faecium; format: functional
Enterococcus faecium [7] = assay: Antibacterial activity against vancomycin susceptible Enterococcus faecium119-39A assessed as inhibition of bacterial growth by broth microdilution method; format: functional; details: 119-39A
Staphylococcus aureus [8] = assay: Antibacterial activity against methicillin-resistant Staphylococcus aureus J-108; format: functional
Staphylococcus aureus [9] = assay: Antibacterial activity against Staphylococcus aureus ATCC 25923 assessed as reduction in microbial growth after 24 hrs by spectrophotometric method; format: functional
Bacillus cereus [10] = assay: Antibacterial activity against Bacillus cereus; format: functional
Staphylococcus aureus [11] = assay: Antibacterial activity against Staphylococcus aureus 4125 assessed as reduction in bacterial growth; format: functional
Pseudomonas aeruginosa [12] = assay: Antibacterial activity against Pseudomonas aeruginosa assessed as zone of inhibition; format: functional
Aeromonas hydrophila [13] = assay: Antibacterial activity against Aeromonas hydrophila IB101; format: functional
Escherichia coli [14] = assay: Antimicrobial activity against Escherichia coli assessed as reduction in microbial growth; format: functional
Escherichia coli [15] = assay: Antibacterial activity against Escherichia coli assessed as reduction in bacterial growth incubated for 12 hrs by microdilution method; format: functional
Escherichia coli [16] = assay: Antibacterial activity against Escherichia coli assessed as zone of inhibition; format: functional
Rothia kristinae = assay: Antibacterial activity against Rothia kristinae assessed as reduction in microbial growth; format: functional
Bacillus cereus [17] = assay: Antibacterial activity against Bacillus cereus assessed as reduction in microbial growth after 18 hrs by MTT based broth dilution method; format: functional
Neisseria gonorrhoeae = assay: Antibacterial activity against resistant Neisseria gonorrhoeae assessed inhibition of bacterial growth; format: functional
Klebsiella aerogenes = assay: Antimicrobial activity against Enterobacter aerogenes ATCC 45102; format: functional
Candida albicans = assay: Antifungal activity against Candida albicans assessed as fungal growth inhibition by broth microdilution method; format: functional
Aeromonas hydrophila [18] = assay: Antibacterial activity against Aeromonas hydrophila; format: functional
[19] = tested on: Staphylococcus epidermidis; assay: Antibacterial activity against Staphylococcus epidermidis assessed as reduction in microbial growth; format: functional
Pseudomonas aeruginosa [20] = assay: Antibacterial activity against Pseudomonas aeruginosa assessed as reduction in bacterial growth incubated for 24 hrs by broth microdilution method; format: functional
Staphylococcus aureus [21] = assay: Antibacterial activity against Staphylococcus aureus assessed as reduction in microbial growth; format: functional
Trichophyton rubrum = assay: Antifungal activity against Trichophyton rubrum assessed as fungal growth inhibition; format: functional
Vibrio harveyi = assay: Antimicrobial activity against Vibrio harveyi assessed as bacterial growth inhibition; format: functional
Epidermophyton floccosum = assay: Antifungal activity against Epidermophyton floccosum measured after 96 hrs by two fold serial dilution technique; format: functional
Proteus vulgaris = assay: Antimicrobial activity against Proteus vulgaris assessed as inhibition of bacterial growth; format: functional
Cryptococcus neoformans = assay: Antifungal activity against Cryptococcus neoformans assessed as reduction in microbial growth; format: functional
[22] = tested on: Mycobacterium tuberculosis; assay: Antimycobacterial activity against Mycobacterium tuberculosis H37Ra assessed as reduction in microbial growth; format: functional
Staphylococcus aureus [23] = assay: Antibacterial activity against methicillin-resistant Staphylococcus aureus CGMCC1.12483 assessed as reduction in bacterial growth by CLSI protocol based broth microdilution method; format: functional
Vibrio campbellii = assay: Antibacterial activity against Vibrio campbellii MCCC E333 assessed as cell growth inhibition measured after 24 hrs by resazurin dye based assay; format: functional
Vibrio rotiferianus = assay: Antibacterial activity against Vibrio rotiferianus MCCC E385 assessed as cell growth inhibition measured after 24 hrs by resazurin dye based assay; format: functional
Staphylococcus aureus [24] = assay: Antibacterial activity against methicillin-resistant Staphylococcus aureus ATCC 43300 assessed as reduction in bacterial growth by CLSI protocol based broth microdilution method; format: functional
Staphylococcus aureus [25] = assay: Antibacterial activity against Staphylococcus aureus ATCC 25923 assessed as reduction in microbial growth incubated for 24 hrs by broth micro-dilution method; format: functional
Streptococcus mutans = assay: Antibacterial activity against Streptococcus mutans ATCC 25175 assessed as inhibition of bacterial growth incubated for 18 to 20 hrs by CLSI protocol based broth microdilution method; format: functional; details: time 18-20 hrs
Escherichia coli [26] = assay: Antibacterial activity against Escherichia coli ATCC 8730 assessed as reduction in bacterial growth; format: functional
Salmonella = assay: Antibacterial activity against Salmonella ATCC 12022 assessed as inhibition of bacterial growth by standard broth microdilution method; format: functional
Porphyromonas gingivalis = assay: Antibacterial activity against Porphyromonas gingivalis ATCC 33277 assessed as reduction in bacterial growth incubated for 24 hrs by micro-dilution method; format: functional
Pseudomonas aeruginosa [27] = assay: Antibacterial activity against Pseudomonas aeruginosa assessed as reduction in bacterial growth by broth microdilution method; format: functional
Streptococcus suis = assay: Antibacterial activity against Streptococcus suis ATCC 700794 assessed as bacterial growth inhibition incubated for 24 hrs by broth micro-dilution method; format: functional
Pseudomonas aeruginosa [28] = assay: Antibacterial activity against Pseudomonas aeruginosa TISTR 781 assessed as inhibition of bacterial growth incubated for 16 to 18 hrs by Mueller-Hinton broth based two-fold serial dilution method; format: functional; details: time 16-18 hrs
Staphylococcus aureus [29] = assay: Antibiofilm activity against Staphylococcus aureus CMCC 26003 assessed as reduction in live bacteria in biofilm formation incubated for 24 hrs by crystal violet staining based analysis; format: functional
Staphylococcus aureus [30] = assay: Antibacterial activity against methicillin resistant Staphylococcus aureus ATCC 33592 incubated for 24 hrs by Mueller-Hinton broth based assay; format: functional
Bacillus cereus [31] = assay: Antibacterial activity against Bacillus cereus TISTR 687 incubated for 16 to 18 hrs by Mueller-Hinton broth based two-fold serial dilution method; format: functional; details: time 16-18 hrs
[32] = tested on: Mycobacterium tuberculosis; assay: Anti-mycobacterial activity against Mycobacterium tuberculosis H37Ra assessed as reduction in bacterial growth […]; format: functional
Bacillus sp. = assay: Antibacterial activity against Bacillus sp. assessed as inhibition of bacterial growth; format: functional; details: Bacillus sp. (in: firmicutes)
Bacillus subtilis = assay: Antibacterial activity against Bacillus subtilis ATCC 6051 assessed as reduction in bacterial growth incubated for 24 hrs by broth micro-dilution method; format: functional
Escherichia coli [33] = assay: Antibacterial activity against Escherichia coli ATCC 25922 assessed as bacterial growth inhibition measured after 48 hrs by resazurin assay; format: functional
Staphylococcus aureus [34] = assay: Antibacterial activity against Staphylococcus aureus ATCC 25923 assessed as reduction in bacterial growth incubated for 24 hrs by serial dilution method; format: functional
Haemophilus parasuis = assay: Antibacterial activity against Haemophilus parasuis clinical isolates assessed as bacterial growth inhibition measured after 16 to 24 hrs by broth microdilution assay; format: functional; details: Glaesserella parasuis; time 16-24 hrs
Pseudomonas aeruginosa [35] = assay: Antibacterial activity against Pseudomonas aeruginosa TISTR 781 assessed as reduction in bacterial growth by broth microdilution method; format: functional
Salmonella typhimurium [36] = assay: Antibacterial activity against Salmonella typhimurium TISTR 780 assessed as inhibition of bacterial growth incubated for 16 to 18 hrs by Mueller-Hinton broth based two-fold serial dilution method; format: functional, Salmonella enterica subsp. enterica serovar Typhimurium; details: Salmonella enterica, time 16-18 hrs

COc1cc(C)c2c(c1[C@@H]1O[C@@H](CO)C(O)[C@@H](O)[C@@H]1OC(=O)/C=C\c1ccc(O)cc1)CC(CC(C)=O)=CC2=O (some centres undefined)
MIC (Staphylococcus aureus [1]): 0.72 µM (≈ 0.398 µg/mL) | MIC (Salmonella typhimurium [2]): 0.18 µM (≈ 0.0995 µg/mL)

O=C1c2ccccc2C(=O)c2c(O)c(O)cc(O)c21 [PURPURIN]
IC50 (Acetylcholinesterase): 300 nM

COc1cc2c(c(O)c1OC)c(=O)c1ccc(O)cc1n2C
diameter of the inhibition zone (DIZ) (Staphylococcus aureus [3]): 9.58 mm

CCCOc1ccc(N2CCCCC2)c2c(=O)c3ccccc3sc12
MIC (Pseudomonas aeruginosa [4]): 32 µg/mL (≈ 90.5 µM)

COc1cc2oc3cc(O)c(OC)c(CC=C(C)C)c3c(=O)c2c(O)c1CC=C(C)C
MIC (Staphylococcus aureus [5]): 6.25 µg/mL (≈ 14.7 µM) | MIC (Enterococcus faecium [6]): 6.25 µg/mL (≈ 14.7 µM) | MIC (Enterococcus faecium [7]): 6.25 µg/mL (≈ 14.7 µM) | MIC (Staphylococcus aureus [8]): 3.13 µg/mL (≈ 7.37 µM)

COc1ccccc1CNCCC(O)COc1cccc2c(=O)c3ccccc3oc12 (centres undefined)
MIC (Staphylococcus aureus [9]): < 20 µg/mL

COC1=CC(=O)c2c(O)c3c(c(O)c2C1=O)CC(C)(O)C(OC(C)=O)C3 (centres undefined)
MIC (Bacillus cereus [10]): 0.0088 µM (≈ 0.00319 µg/mL)

COc1c(O)c(C=O)cc2c(=O)c3ccccc3oc12
MIC (Pseudomonas aeruginosa [4]): 32 µg/mL (≈ 118 µM)

COc1cc(O)c2c(c1)C(=O)c1cc(C)cc(O)c1C2=O [PHYSCION]
MIC (Staphylococcus aureus [11]): 90 µg/mL (≈ 317 µM)

COc1cc(C=O)c2c(=O)c3ccccc3oc2c1O
MIC (Pseudomonas aeruginosa [4]): 32 µg/mL (≈ 118 µM)

CN(CCO)CC(O)COc1cccc2c(=O)c3ccccc3oc12 (centres undefined)
MIC (Staphylococcus aureus [9]): < 20 µg/mL

Cc1cc(O)c2c(c1)C(=O)c1cccc(O)c1C2=O [CHRYSOPHANOL]
inhibition zone (IZ) (Pseudomonas aeruginosa [12]): 18 mm | MIC (Aeromonas hydrophila [13]): 200 µg/mL (≈ 787 µM) | MIC (Escherichia coli [14]): 3.13 µg/mL | MIC (Escherichia coli [15]): 125 µg/mL (≈ 492 µM) | inhibition zone (IZ) (Escherichia coli [16]): 18 mm | MIC (Rothia kristinae): > 250 µg/mL | MIC (Bacillus cereus [17]): > 250 µg/mL | MIC (Staphylococcus aureus [11]): 90 µg/mL (≈ 354 µM) | MIC (Neisseria gonorrhoeae): 75 µg/mL (≈ 295 µM) | MIC (Klebsiella aerogenes): > 250 µg/mL | MIC (Candida albicans): 50 µg/mL (≈ 197 µM) | MIC (Aeromonas hydrophila [18]): 200 µg/mL (≈ 787 µM) | MIC [19]: > 250 µg/mL | MIC (Pseudomonas aeruginosa [20]): 128 µg/mL (≈ 503 µM) | MIC (Staphylococcus aureus [21]): > 250 µg/mL | MIC (Trichophyton rubrum): 156 µg/mL (≈ 614 µM) | MIC (Vibrio harveyi): 1000 µg/mL (≈ 3930 µM) | MIC (Epidermophyton floccosum): 625 µg/mL (≈ 2460 µM) | MIC (Proteus vulgaris): 128 µg/mL (≈ 503 µM) | MIC (Cryptococcus neoformans): 50 µg/mL | MIC [22]: 64 µg/mL

CC1=CC2c3c(O)c(O)c4oc5cc(O)cc(O)c5c(=O)c4c3[C@H](c3cc(O)c(O)c4oc5cc(O)cc(O)c5c(=O)c34)C2C(C)(C)C1 (some centres undefined)
MIC (Staphylococcus aureus [23]): 3.9 µg/mL (≈ 5.98 µM) | MIC (Vibrio campbellii): 15.6 µg/mL (≈ 23.9 µM) | MIC (Vibrio rotiferianus): 15.6 µg/mL (≈ 23.9 µM) | MIC (Staphylococcus aureus [24]): 3.9 µg/mL (≈ 5.98 µM)

Cc1cccc2c(=O)c3ccc(OCC(O)CNC(C)C)cc3oc12 (centres undefined)
MIC (Staphylococcus aureus [9]): < 20 µg/mL

C=CCNCC(O)COc1ccc2c(=O)c3cccc(C)c3oc2c1 (centres undefined)
MIC (Staphylococcus aureus [9]): < 20 µg/mL

O=C1c2cccc(O)c2C(=O)c2c(O)cc(CO)cc21 [ALOE-EMODIN]
MIC (Staphylococcus aureus [25]): 4 µg/mL | MIC (Streptococcus mutans): 6.25 µg/mL (≈ 23.1 µM) | MIC (Escherichia coli [26]): 125 µg/mL (≈ 463 µM) | MIC (Salmonella): 250 µg/mL (≈ 925 µM) | MIC (Porphyromonas gingivalis): 2.5 µg/mL (≈ 9.25 µM)

CN(CCC(O)COc1cccc2c(=O)c3ccc(Cl)cc3oc12)C(C)(C)C (centres undefined)
MIC (Staphylococcus aureus [9]): < 20 µg/mL

COC1=CC(=O)c2c(cc3c(c2O)CC(O)C(C)(O)C3)C1=O (centres undefined)
MIC (Bacillus cereus [10]): 0.312 µM (≈ 0.0949 µg/mL)

Cc1cc(O)c2c(c1)C(=O)c1cc(O)cc(O)c1C2=O [EMODIN]
MIC (Pseudomonas aeruginosa [27]): > 128 µg/mL | MIC (Streptococcus suis): 0.125 µg/mL (≈ 0.463 µM) | MIC (Staphylococcus aureus [11]): 20 µg/mL (≈ 74 µM) | MIC (Pseudomonas aeruginosa [28]): 128 µg/mL (≈ 474 µM) | MIC (Staphylococcus aureus [29]): 0.125 µg/mL (≈ 0.463 µM) | MIC (Staphylococcus aureus [30]): 4 µg/mL (≈ 14.8 µM) | MIC (Bacillus cereus [31]): 16 µg/mL (≈ 59.2 µM) | MIC [32]: 0.9 µg/mL (≈ 3.33 µM) | MIC (Bacillus sp.): 0.5 µg/mL (≈ 1.85 µM) | MIC (Bacillus subtilis): 8 µg/mL (≈ 29.6 µM) | MIC (Escherichia coli [33]): > 128 µg/mL | MIC (Staphylococcus aureus [34]): 64 µg/mL (≈ 237 µM) | MIC (Haemophilus parasuis): 32 µg/mL (≈ 118 µM) | MIC (Pseudomonas aeruginosa [35]): > 128 µg/mL | MIC (Salmonella typhimurium [36]): 128 µg/mL (≈ 474 µM)
